Reference: US8691864B2, “Agents useful for reducing amyloid precursor protein and treating dementia and methods of use thereof” (priority 2000, dated 2014)

Columns and labels:
[1] = system: secreted APP; assay: ELISA for secreted APP in SHSY5Y cells; assay type: cell-based, human; conditions: 16 hours
Protocol: (§1) An enzyme-linked immunosorbent assay was developed to detect secreted APP in SHSY5Y cells, a human neuroblastoma cell line. The purpose of the screen was to discover small molecules that inhibit APP protein synthesis in SHSY5Y cells. SHSY5Y cells were plated at 1×10^5 cells/well in […] of DMEM containing 0.5% heat inactivated FBS in 96 well tissue culture treated plates (Falcon no. 35 3072). 144 MES compounds were tested at final concentrations of […] in 0.1% DMSO. Compounds were added and the plates incubated for 16 hours at 37° C./5% CO2. Maxisorp plates (Nunc no. 437958) were coated overnight with […] capture antibody (Biosource 44-100) diluted in Ca^++ and Mg^++ free PBS. Biosource 44-100 is a mouse mAb that recognizes aa 1-100 of human APP. Plates were blocked for 30 minutes with 1 mg/mL BSA in Ca^++ and Mg^++ free PBS. Plates were washed 3× with wash buffer (Ca^++ and Mg^++ free PBS+0.01% Tween20). […] of supernatants and non-cultured medium controls were transferred from culture plates to ELISA plates. Culture plates were reserved for toxicity analysis. Supernatants were incubated for 4 hours at RT on a plate shaker. After supernatant incubation, plates were washed 3×. Primary antibody (Signet Clone 6E-10 biotin) was added at 0.3125 mg/mL and incubated overnight at 4° C. The recognition site of 6E-10 is aa 1-17 of Ab. For detection, a 1:3000 dilution of horseradish peroxidase conjugated streptavidin (Endogen no. N-100) was incubated for 30 minutes. Plates were washed 3×. Enzyme activity was assessed by incubation with […] TMB substrate solution (Moss no. TMB-US) for 20 minutes. The reaction was stopped by the addition of […] 0.18M sulfuric acid. Optical density was read at 450 nm on Wallac Victor2 plate reader. During the first incubation, toxicity was determined using MTS assay, Cell Titer96 AQ reagent (Promega no. G5430). The background values from the non-cultured medium control were subtracted from the sample values and secreted APP levels and toxicity were expressed as % vehicle control. Of the 144 MES compounds screened, 12 inhibited secreted APP as determined by ELISA. The results are depicted in FIGS. 13A-M.
(§2) Using the experimental procedure outlined above, APP secretion and toxicity studies were performed on several other non-carbamate compounds, and the results are shown in Tables 3 and 4. The compound structures are provided in Table 2 in the application, which are identified by their MES number.

[2] = system: SH-SY-5Y Cells; assay: MTS toxicity assay in SHSY5Y cells; assay type: cell-based, human
Protocol: as §1, §2

| SMILES | APP Secretion by SH-SY-5Y Cells ([1]; Dose 2 uM) | APP Secretion by SH-SY-5Y Cells ([1]; Dose 6 uM) | APP Secretion by SH-SY-5Y Cells ([1]; Dose 20 uM) | APP Toxicity SH-SY-5Y Cells (MTS assay) ([2]; Dose 2 uM) | APP Toxicity SH-SY-5Y Cells (MTS assay) ([2]; Dose 6 uM) | APP Toxicity SH-SY-5Y Cells (MTS assay) ([2]; Dose 20 uM) | APP Secretion by SH-SY-5Y Cells ([1]; Dose 0.08 uM) | APP Secretion by SH-SY-5Y Cells ([1]; Dose 0.25 uM) | APP Secretion by SH-SY-5Y Cells ([1]; Dose 0.74 uM) | APP Toxicity SH-SY-5Y Cells (MTS assay) ([2]; Dose 0.08 uM) | APP Toxicity SH-SY-5Y Cells (MTS assay) ([2]; Dose 0.25 uM) | APP Toxicity SH-SY-5Y Cells (MTS assay) ([2]; Dose 0.74 uM) | APP Secretion by SH-SY-5Y Cells ([1]; Dose 2 uM, listed as 9228) | APP Secretion by SH-SY-5Y Cells ([1]; Dose 6 uM, listed as 9228) | APP Secretion by SH-SY-5Y Cells ([1]; Dose 20 uM, listed as 9228) | APP Toxicity SH-SY-5Y Cells (MTS assay) ([2]; Dose 2 uM, listed as 9228) | APP Toxicity SH-SY-5Y Cells (MTS assay) ([2]; Dose 6 uM, listed as 9228) | APP Toxicity SH-SY-5Y Cells (MTS assay) ([2]; Dose 20 uM, listed as 9228) |
| --- | --- | --- | --- | --- | --- | --- | --- | --- | --- | --- | --- | --- | --- | --- | --- | --- | --- | --- |
| COc1ccc2c(c1)[C@]1(C)CCN(C)C1N2Cc1ccccc1 (single isomer, unassigned) [MES 9202] | 94.4 % vehicle control | 107.55 % vehicle control | 110.05 % vehicle control | 99.15 % vehicle control | 97.85 % vehicle control | 90.25 % vehicle control | – | – | – | – | – | – | – | – | – | – | – | – |
| COc1ccc2c(c1)[C@@]1(C)CCN(C)C1N2Cc1ccccc1 (single isomer, unassigned) [MES 9203] | 103.1 % vehicle control | 103.9 % vehicle control | 108.4 % vehicle control | 98.93 % vehicle control | 99.17 % vehicle control | 98.83 % vehicle control | – | – | – | – | – | – | – | – | – | – | – | – |
| COc1ccc2c(c1)[C@@]1(C)CCN(C)C1N2C (single isomer, unassigned; (+)) [MES 9295, (+)-O-Methyleseroline] | 102.6 % vehicle control | 95.7 % vehicle control | 89.35 % vehicle control | 101.15 % vehicle control | 100.4 % vehicle control | 99.85 % vehicle control | – | – | – | – | – | – | – | – | – | – | – | – |
| CN1CC[C@@]2(C)c3cc(O)ccc3N(C)C2NC1=O (single isomer, unassigned; (-)) [MES 9205] | 96.73 % vehicle control | 96.9 % vehicle control | 22.17 % vehicle control | 97.9 % vehicle control | 97.73 % vehicle control | 33.33 % vehicle control | 115.1 % vehicle control | 107.4 % vehicle control | 114.7 % vehicle control | 108.7 % vehicle control | 105.8 % vehicle control | 105.6 % vehicle control | – | – | – | – | – | – |
| CN1c2ccc(OC3CCCCO3)cc2[C@]2(C)CCNC12 (single isomer, unassigned; (-)) [MES 9320, (−)-O-Tetrahydropyranyl-N-1-noreseroline] | 103.15 % vehicle control | 91.8 % vehicle control | 15.2 % vehicle control | 92 % vehicle control | 84 % vehicle control | 28 % vehicle control | – | – | – | – | – | – | – | – | – | – | – | – |
| COc1ccc2c(c1)c(CCN(C)C)cn2Cc1ccccc1 [MES 9191, N,N-Dimethyl-N^1-benzyl-5-methoxytryptamine] | 100.74 % vehicle control | 65.3 % vehicle control | 64.36 % vehicle control | 99.18 % vehicle control | 92.84 % vehicle control | 91.1 % vehicle control | 100.8 % vehicle control | 101.6 % vehicle control | 99.87 % vehicle control | 104.5 % vehicle control | 103.9 % vehicle control | 103.7 % vehicle control | – | – | – | – | – | – |
| COc1ccc2c(c1)C1(C)CCN(C)C1N2Cc1ccccc1 (stereo not drawn) [MES 9199] | 92.2 % vehicle control | 93.9 % vehicle control | 102.95 % vehicle control | 100.5 % vehicle control | 101.65 % vehicle control | 101.9 % vehicle control | – | – | – | – | – | – | – | – | – | – | – | – |
| COc1ccc2c(c1)C1(C)CCN(C)C1N2 (stereo not drawn) [MES 9201] | 97.25 % vehicle control | 110.75 % vehicle control | 124.65 % vehicle control | 98.9 % vehicle control | 98.65 % vehicle control | 98.25 % vehicle control | – | – | – | – | – | – | – | – | – | – | – | – |
| CN1CC[C@@]2(C)c3cc(O)ccc3N(Cc3ccccc3)C12 (stereo partly drawn) [MES 9206] | 88.2 % vehicle control | 97.1 % vehicle control | 96.4 % vehicle control | 96 % vehicle control | 91.85 % vehicle control | 76.3 % vehicle control | – | – | – | – | – | – | – | – | – | – | – | – |
| CN1CC[C@]2(C)c3cc(O)ccc3N(Cc3ccccc3)C12 (stereo partly drawn) [MES 9215] | 94.55 % vehicle control | 108.1 % vehicle control | 6.2 % vehicle control | 92.3 % vehicle control | 78.6 % vehicle control | 12.9 % vehicle control | – | – | – | – | – | – | – | – | – | – | – | – |
| CN1CC[C@@]2(C)C3=CC(=O)C(=O)C=C3N(C)C12 (stereo partly drawn) [MES 9225] | 110.45 % vehicle control | 109.2 % vehicle control | 59.75 % vehicle control | 104.6 % vehicle control | 100.1 % vehicle control | 66.5 % vehicle control | – | – | – | – | – | – | – | – | – | – | – | – |
| C=CC1C[N+]2(Cc3ccc(C(F)(F)F)cc3)CCC1CC2[C@H](O)c1ccnc2ccccc12.[Br-] (stereo partly drawn) [MES 9226] | 116.55 % vehicle control | 101.95 % vehicle control | 104.65 % vehicle control | 106.4 % vehicle control | 99.7 % vehicle control | 97.9 % vehicle control | – | – | – | – | – | – | – | – | – | – | – | – |
| COc1ccc2c(c1)[C@@](C)(CC#N)C(=O)N2C [MES 9227] | 101.15 % vehicle control | 99.45 % vehicle control | 120.5 % vehicle control | 103.7 % vehicle control | 99.27 % vehicle control | 96.07 % vehicle control | – | – | – | – | – | – | – | – | – | – | – | – |
| COc1ccc2c(c1)[C@@]1(C)CCNC1N2C (stereo partly drawn) [MES 9228] | – | – | – | – | – | – | – | – | – | – | – | – | 97.75 % vehicle control | 110.45 % vehicle control | 130.05 % vehicle control | 102.8 % vehicle control | 97.6 % vehicle control | 95.4 % vehicle control |
